This note sets out measurements from patent publication US20220152037A1, “USE OF GABAA RECEPTOR MODULATORS FOR TREATMENT OF PAIN” (NEUROCYCLE THERAPEUTIC, INC., priority 2019, published 2022).

For the experiment, the system named is rat model of fibromyalgia pain (reserpine-induced mechanical allodynia). Kind of experiment: Mechanical allodynia (von Frey 50% response threshold) in reserpine-induced rat model of fibromyalgia pain. Type of experiment: in vivo. An excerpt:
The purpose of the study is to assess the efficacy of the described compounds in the rat model of fibromyalgia pain.
Animals were assigned to treatment groups based on Day 0 pre-dose von Frey 50% response thresholds so that group means of the mean paw withdrawal latencies were approximately equal. Animals were ranked by pre- and post-reserpine baseline change from lowest to highest, and treatments were assigned randomly within stratified sub-groups according to the total number of treatment groups in the study.
The animals were dosed in sequence based on animal number, so that the distribution of treatment across a given set of animals was not predictable.
Mechanical fibromyalgia-associated allodynia is measured using […] (Stoelting©; Wood Dale, Ill., USA) with varying stiffness (0.04, 0.07, 0.16, 0.4, 1.0, 4.0, and 8.0 g) according to the up-down method 1. Animals were placed in individual acrylic chambers on a metal mesh surface and allowed to acclimate to their surroundings for a minimum of 15 minutes before testing. Each filament was presented perpendicular to the plantar surface with sufficient force to cause slight buckling against the paw and held for approximately 4 seconds or until a positive response is noted (paw sharply withdrawn). Testing was initiated with the 0.4 g filament. In the absence of a paw withdrawal response, the next stronger stimulus was presented. In the event of paw withdrawal, the next weaker stimulus was used. This process was repeated until 4 responses after the initial change in response (no response to positive response or positive response to no response) were obtained. […] The 50% response threshold is calculated using the formula:
50% response threshold (g)=(10(Xf+kδ))/10,000
• Pre-Injury mechanical fibromyalgia-associated allodynia testing (vF) • Reserpine injection
• Mechanical fibromyalgia-associated allodynia testing (vF; time baseline) • Dosing (time 0 min) • Mechanical fibromyalgia-associated allodynia testing (vF; time ˜1 hour) • Mechanical fibromyalgia-associated allodynia testing (vF; time ˜2 hour) • Mechanical fibromyalgia-associated allodynia testing (vF; time ˜4 hour) • Euthanasia
Pain was induced by three daily doses of 1 mg/kg reserpine, and mechanical fibromyalgia-associated allodynia was assessed using von Frey filaments. Mechanical fibromyalgia-associated allodynia was measured prior to and the first reserpine injection and 4 days following the third injection. GABAA receptor modulators (0.3 or 3 mg/kg), pregabalin (30 mg/kg) or vehicle (0.5% methylcellulose) were administered 4 days after the last reserpine injection, with mechanical fibromyalgia-associated allodynia being assessed prior to, and at 1, 2, and 4 hours post-administration to determine the efficacy of GABAA receptor modulators in this model.

The structures appear in SMILES notation. “Also recorded” adds a separate entry of the source.

Regarding `CC(C)(O)c1cnn2c(-c3ccc(F)c(-c4c(F)cccc4C#N)c3)cnc2n1` [Compound 1], the “Mean Paw Response Thresholds” value is given as 3.68 g (0.3 mg/kg PO group, Day 0, Baseline (post-reserpine, before dosing)); 14.50 g (0.3 mg/kg PO group, Pre-reserpine (before dosing)); 6.52 g (0.3 mg/kg PO, Day 0, 1 hr post-dosing); 8.36 g (0.3 mg/kg PO, Day 0, 2 hr post-dosing); 7.96 g (0.3 mg/kg PO, Day 0, 4 hr post-dosing); 3.82 g (3 mg/kg PO group, Day 0, Baseline (post-reserpine, before dosing)). For the same molecule, the “Mean Paw Response Thresholds” value amounted to 14.01 g (3 mg/kg PO group, Pre-reserpine (before dosing)); 6.08 g (3 mg/kg PO, Day 0, 1 hr post-dosing); 7.98 g (3 mg/kg PO, Day 0, 2 hr post-dosing); 7.54 g (3 mg/kg PO, Day 0, 4 hr post-dosing).

Take `CC(C)C[C@H](CN)CC(=O)O` [pregabalin, reference compound]: the “Mean Paw Response Thresholds” value runs as follows: (30 mg/kg PO group, Day 0, Baseline (post-reserpine, before dosing)) 3.84 g; (30 mg/kg PO group, Pre-reserpine (before dosing)) 14.55 g; (30 mg/kg PO, Day 0, 1 hr post-dosing) 9.34 g; (30 mg/kg PO, Day 0, 2 hr post-dosing) 10.17 g; (30 mg/kg PO, Day 0, 4 hr post-dosing) 10.23 g. In addition, under “30 mg/kg PO, 1, 2 and 4 hour time points”, the “Reversal of reserpine-induced mechanical fibromyalgia-associated allodynia (response thresholds)” value is given as “significantly increased median response thresholds at all of the time points following dosing; also recorded: significantly reversed mechanical fibromyalgia-associated allodynia”.
